Laboratory results as given in PubChem BioAssay AID2124 (Sanford-Burnham Center for Chemical Genomics, 2009).
Results filed as inconclusive are left out. Activity calls are given as the source filed them. The rule behind the calls is not given here; tested in MIN6 cells.

Test: GFP-wavelength compound autofluorescence in cells – imaging, high-content imaging, artefact control, dose response (AID 2124);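 note: cells exposed to compound for 48 hours before fixing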
Settings: cells, GFP-channel autofluorescence, high-content imaging, at 10 µM; for z-score: stronger effect = higher value

SMILES	z-score	cell count [cells]
CN(C)S(=O)(=O)Oc1cccc(C(=O)Nc2ccc([N+](=O)[O-])cc2)c1	-0.33 (inactive)	2460
CCOC(=O)c1c(-c2ccc(C)cc2)csc1NC(=O)/C(C#N)=C/c1ccc(O)c(OC)c1	-0.3 (inactive)	2890
O=C(C1=C[C@H](C2CC2)C[C@H](OCCCCO)O1)N1CCN(Cc2ccccc2)CC1	-0.38 (inactive)	2880
O=C(NCc1ccc(F)cc1)C1CCCN(S(=O)(=O)c2cccnc2)C1 (stereo not drawn)	-0.33 (inactive)	3070
CCN1CC=C2C(C#N)=C(N)C(C#N)(C#N)[C@H](c3cccc(OC)c3OC)[C@H]2C1	0.28	2790
COc1ccc2c(C(=O)CN(C)C3CCCCC3)c[nH]c2c1	-0.37 (inactive)	3190
C=CCNC(=O)C1CCN(S(=O)(=O)c2ccc(Br)cc2)CC1	-0.33 (inactive)	3230
Nc1ccc(-c2nc3nc(N)nc(N)c3nc2-c2ccc(N)cc2)cc1	-0.32 (inactive)	2980
Cc1ccc(N2C(=O)c3cccc4c(N5CCN(C)CC5)ccc(c34)C2=O)c2cccnc12	0.07	1800
N#C/C(=C/c1ccc(-c2ccccc2)o1)c1nc(-c2cccs2)cs1	0.88	3200
COc1ccc(N(CCN2C(=O)c3ccccc3C2=O)C(=O)c2cccc([N+](=O)[O-])c2)cc1	-0.25 (inactive)	2790
CN(C)c1ccc(/C=C2\SC(=O)N(CCc3nnc(N)s3)C2=O)cc1	-0.3 (inactive)	3290
N#C/C(=C/c1ccc(N2CCOCC2)o1)c1ccc(Br)cc1	0.24	555
COc1cccc(N2CCN(c3ncccn3)CC2)c1	-0.33 (inactive)	3230
O=[N+]([O-])c1ccc(N/N=C/c2c[nH]c3ccccc23)cc1	0.33	1200
CCCCNC(=O)C1CC(=O)N(C2CCCCC2)C1 (stereo not drawn)	-0.33 (inactive)	3070
CCN(CC)c1ccc(/C=N/c2sc3c(c2C#N)C2CCN3CC2)c(O)c1	1.45	2490
CN(C)C(=O)C12CCC(C)(c3nc4ccccc4nc31)C2(C)C (stereo not drawn)	-0.38 (inactive)	3350
c1ccc2c(N3CCNCC3)nsc2c1	-0.39 (inactive)	2010
Fc1ccc(C2CC(c3ccco3)=NN2c2ccccc2)cc1 (stereo not drawn)	-0.33 (inactive)	2910
O=C(NCc1cccs1)c1ccc(N2CCCCC2)nc1	-0.33 (inactive)	2760
CN(C)/C=C1/Nc2ccccc2C1=O	-0.36 (inactive)	3060
C=CCNC(=O)c1c2c(nc3ccccc13)-c1ccccc1CC2	-0.39 (inactive)	3270
COc1ccc2cc3cc(C(=O)NCc4ccccn4)oc3nc2c1	-0.38 (inactive)	3310
Cc1ccc(-c2cc(N)n(-c3ccccc3)n2)cc1	-0.33 (inactive)	3090
CN(C)c1nc(N)nc(/C(C#N)=C/C2CC3C=CC2C3)n1 (stereo not drawn)	-0.33 (inactive)	2780
C=CCN1C(=O)/C(=C/c2ccc(N3CCOCC3)o2)C(=O)NC1=S	-0.32 (inactive)	3270

SMILES	z-score	cell count [cells]
Nc1nc(-c2ccc(Cl)cc2)c(N=Nc2ccc(S(=O)(=O)N3CCOCC3)cc2)s1	-0.32 (inactive)	2990
CCOC(=O)CC1C(=O)NCCN1c1nc2ccc(C)cn2c(=O)c1/C=C1\SC(=S)N(CC(C)C)C1=O (stereo not drawn)	0.66	3220
COC(=O)c1cnn2c(C(F)(F)F)cc(-c3ccc(F)cc3)nc12	-0.33 (inactive)	2980
C1=C(c2ccccc2)Nc2nnnn2C1	-0.26 (inactive)	3170
CC1=Nc2ccccc2/C1=C/c1sc(=S)n(-c2cccc(C(=O)O)c2)c1O	-0.37 (inactive)	3380
CCOC(=O)c1sc(NC(=O)c2sccc2C)cc1C	-0.39 (inactive)	3300
NCC12CC3CC(C1)CC(CN)(C3)C2	-0.36 (inactive)	3300
Cc1ccc(S(=O)(=O)c2cccc(S(=O)(=O)N3CCCC3)c2)cc1S(=O)(=O)N1CCCC1	-0.33 (inactive)	2360
CCOc1ccc(NC(=O)Cn2c(=O)oc3ccccc32)cc1	-0.25 (inactive)	3070
O=C(OCC(=O)N1CCN(C(=O)c2ccco2)CC1)c1ccccc1OCc1ccccc1	-0.38 (inactive)	2850
Cc1ccccc1-c1nnc(-c2ccc(Cl)cc2)o1	-0.26 (inactive)	2820
O=[N+]([O-])c1ccc(C2=NN(c3ccccc3)C(c3ccco3)C2)cc1 (stereo not drawn)	0.17	3180
CCOC(=O)c1ccc(CSc2nnc(-c3ccncc3)n2N)cc1	-0.33 (inactive)	3110
COc1c2c(nc3ccccc13)OC(C(C)(O)COC(C)=O)C2 (stereo not drawn)	-0.33 (inactive)	2830
CCCCCCc1cc2cc(-c3nnc(-c4ccccc4O)o3)c(=O)oc2cc1O	-0.21 (inactive)	2760
Cc1ccc(S(=O)(=O)C(C#N)c2nc3ccccc3nc2N2CCC(C)CC2)cc1 (stereo not drawn)	-0.33 (inactive)	3260
CC(C)N1CCc2c(sc(NC(=O)c3cc4cc([N+](=O)[O-])ccc4s3)c2C(N)=O)C1	-0.23 (inactive)	177
CNC(=S)NNC(=O)c1oc2nc(-c3ccccc3)cc(-c3ccco3)c2c1N	-0.3 (inactive)	2940
COc1ccc(CN(CC2CCC(C(=O)O)CC2)C(=S)Nc2cccc(C)c2)cc1 (stereo not drawn)	-0.38 (inactive)	3120
CCCCCCN1C=CC(=C/C=C(\C#N)C(=O)OCC)C=C1	0.43	3270
O=C(C1=NN(c2ccccc2)C2C(=O)N(c3cccc(Cl)c3)C(=O)C12)c1ccccc1 (stereo not drawn)	-0.32 (inactive)	3140
CN(C)c1ccc(/C=C2\SC(=S)N(Nc3ncc(C(F)(F)F)cc3Cl)C2=O)cc1	0.57	2530
O=C(CSc1nc2ccc(Cl)cc2o1)NCc1ccc2c(c1)OCO2	-0.33 (inactive)	3140
O=C(c1cccs1)c1no[n+]([O-])c1C(=O)c1cccs1	-0.31 (inactive)	586
N#Cc1c(C(F)(F)F)cc(-c2ccccc2)nc1SCc1nc(N)nc(N2CCOCC2)n1	0.32	3070
NS(=O)(=O)c1cccc2cccnc12	-0.33 (inactive)	3060
O=C(/C=C/c1ccco1)NC(=S)Nc1ccccc1N1CCCC1	-0.39 (inactive)	2690

SMILES	z-score	cell count [cells]
CCOc1ccc(NC(=S)N2CCC(N(C)CC3CCCO3)CC2)cc1 (stereo not drawn)	-0.33 (inactive)	2900
O=C1/C(=N\S(=O)(=O)c2cccs2)C([n+]2cccc(Cc3ccccc3)c2)=C([O-])c2ccccc21	-0.31 (inactive)	307
CN(C)c1ccc(/C=C2\N=C(c3ccc(Cl)c([N+](=O)[O-])c3)NC2=O)cc1	-0.33 (inactive)	2940
O=c1ccc(NS(=O)(=O)c2ccccc2)cn1Cc1ccc(Cl)c(Cl)c1	-0.38 (inactive)	3280
COc1ccc(C)cc1NC(=O)CC(NC(C)=O)c1ccccc1 (stereo not drawn)	-0.33 (inactive)	3060
CCCCC(=O)Nc1ccc2c(c1)nc1n2CCSC1	-0.38 (inactive)	2870
O=[N+]([O-])c1ccc(N(c2ccccc2)c2ccccc2)cc1	-0.32 (inactive)	2510
CC1CCCC(C)N1C(=O)CSc1nnc(-c2cccs2)o1 (stereo not drawn)	-0.33 (inactive)	2440
CCOc1cc(N(CC)CC)ccc1/C=C(/C#N)c1nc2ccccc2[nH]1	1.08	1870
Cc1[nH]c2ccccc2c1Cc1nnc(SCC(N)=O)o1	-0.26 (inactive)	2780
N#CC(C#N)=C1C=C2C=C(N3CCOCC3)CCC2CC1 (stereo not drawn)	1.21	3080
Cc1ccc(CN=Cc2[nH]c3ccc(Br)c(Cl)c3c2O)cc1	-0.33 (inactive)	2930
O=C1C2C3C=CC(C3)C2C(=O)N1CCc1ccccc1 (stereo not drawn)	-0.33 (inactive)	3430
Cc1cc(C)n(-c2ccc(OCC(=O)O)nn2)n1	-0.33 (inactive)	3400
COCCCNc1c2c3c(cccc3[nH]c1=O)C(=O)c1ccccc1-2	1.79	2800
CC(/C=N/NC(=O)c1ccncc1)=C\c1ccc(C(C)C)cc1	-0.33 (inactive)	2700
Nc1c(C(=O)C2CC2)sc2nc(-c3ccccc3)cc(C(F)(F)F)c12	0.39	3090
CN(C)CCOCCOc1ccccc1-c1ccccc1	-0.33 (inactive)	3130
O=C(NN=C1CCN(Cc2ccccc2)CC1)c1cccc(S(=O)(=O)Nc2ccccc2Cl)c1	-0.38 (inactive)	3200
CN(C)c1ccc(/C=C2\SC(=O)N(CC(O)Cn3c4ccccc4c4ccccc43)C2=O)cc1 (stereo not drawn)	-0.23 (inactive)	3020
Cc1ccc(-n2c3c(c(=O)[nH]c2=O)C(C(F)(F)F)(C(F)(F)F)NC(=O)N3)cc1	-0.33 (inactive)	2850
CN1/C(=C\C=C2/C(=O)Oc3ccccc3C2=O)C(C)(C)c2ccccc21	3.27	3310
COc1ccc(C(=O)Nn2cnnc2)cc1OC	-0.39 (inactive)	2930
Cc1ccc2nc(/C(C#N)=C\c3ccc(N4CCOCC4)o3)[nH]c2c1	0.7	2680
CC(=O)Cc1cc(O)c2ccccc2c1OC(=O)c1ccc(Br)cc1	-0.26 (inactive)	2650
